test system: Candida albicans ATCC 10231; assay: DGHM suspension test, microbicidal activity; format: cell-based; conditions: CU 50 mg/l; contact time 5 mins.
Procedure: (§1) The microbicidal activity of the quanterary carboxylic acid alkanolamine ester salts used in accordance with the invention was tested against the following selected test germs:
(§2) The effectiveness of the compound to be tested was determined by the suspension test in accordance with the guidelines of the Deutsche Gesellschaft for Hygiene and Mikrobiologie (DGHM). Test solutions containing quatemary carboxylic acid alkanolamine ester salts in the quantities shown in the Tables of 50, 100, 200, 400 and 800 mg/l were prepared using water with a hardness of 17° dH and optionally isopropanol.
(§3) At room temperatures, quantities of 0.1 ml test germ suspension were pipetted into test tubes containing 10 ml of the test solutions described above and mixed. After various contact times of 5, 15, 30 and 60 minutes, 1 ml of material was taken from the test tubes by pipette and transferred to 9 ml inactivator solution (inactivators: 3.0% Tween, 0.3% lecithin, 0.1% histidine). After in activation for at least 5 and at most 30 minutes, the living germ count was determined by plating out onto casein peptone-soybean flour peptone (CaSo)-agar plates. Using a spiral plater, the inactivating mixture was directly plated out onto CaSo-agar. The samples were incubated for 24 to 72 hours at 37° C. and macroscopically evaluated for growth. The destruction time or the residual germ count was determined in this way. The germ count of an unchallenged water control is related to the germ count of the inactivated test solution taking the dilution into account. The higher the value, the better the microbicidal effect. The symbol < means that the logarithmic reductuon factor is below the indicated value or, in the case of the symbol >, above the indicated value. The abbreviation CU stands for “concentration used”.

| Compound | logarithmic reduction factor |
| --- | --- |
| CCCCCCCC(=O)OCC[N+](C)(CCOC(=O)CCCCCCC)CCOC(=O)CCCCCCC.COS(=O)(=O)[O-] [Example 2, methyl triethanolammonium tricaprylic acid ester methosulfate] | 3.44 |

same assay, conditions: CU 50 mg/l; contact time 15 mins.

| Compound | logarithmic reduction factor |
| --- | --- |
| CCCCCCCC(=O)OCC[N+](C)(CCOC(=O)CCCCCCC)CCOC(=O)CCCCCCC.COS(=O)(=O)[O-] [Example 2, methyl triethanolammonium tricaprylic acid ester methosulfate] | >4.71 |

same assay, conditions: CU 50 mg/l; contact time 30 mins.

| Compound | logarithmic reduction factor |
| --- | --- |
| CCCCCCCC(=O)OCC[N+](C)(CCOC(=O)CCCCCCC)CCOC(=O)CCCCCCC.COS(=O)(=O)[O-] [Example 2, methyl triethanolammonium tricaprylic acid ester methosulfate] | >4.82 |

same assay, conditions: CU 50 mg/l; contact time 60 mins.

| Compound | logarithmic reduction factor |
| --- | --- |
| CCCCCCCC(=O)OCC[N+](C)(CCOC(=O)CCCCCCC)CCOC(=O)CCCCCCC.COS(=O)(=O)[O-] [Example 2, methyl triethanolammonium tricaprylic acid ester methosulfate] | >4.68 |

same assay, conditions: CU 100 mg/l; contact time 5 mins.

| Compound | logarithmic reduction factor |
| --- | --- |
| CCCCCCCC(=O)OCC[N+](C)(CCOC(=O)CCCCCCC)CCOC(=O)CCCCCCC.COS(=O)(=O)[O-] [Example 2, methyl triethanolammonium tricaprylic acid ester methosulfate] | >4.73 |

same assay, conditions: CU 100 mg/l; contact time 15 mins.

| Compound | logarithmic reduction factor |
| --- | --- |
| CCCCCCCC(=O)OCC[N+](C)(CCOC(=O)CCCCCCC)CCOC(=O)CCCCCCC.COS(=O)(=O)[O-] [Example 2, methyl triethanolammonium tricaprylic acid ester methosulfate] | >4.71 |

same assay, conditions: CU 100 mg/l; contact time 30 mins.

| Compound | logarithmic reduction factor |
| --- | --- |
| CCCCCCCC(=O)OCC[N+](C)(CCOC(=O)CCCCCCC)CCOC(=O)CCCCCCC.COS(=O)(=O)[O-] [Example 2, methyl triethanolammonium tricaprylic acid ester methosulfate] | >4.82 |

same assay, conditions: CU 100 mg/l; contact time 60 mins.

| Compound | logarithmic reduction factor |
| --- | --- |
| CCCCCCCC(=O)OCC[N+](C)(CCOC(=O)CCCCCCC)CCOC(=O)CCCCCCC.COS(=O)(=O)[O-] [Example 2, methyl triethanolammonium tricaprylic acid ester methosulfate] | >4.68 |

same assay, conditions: CU 200 mg/l; contact time 5 mins.

| Compound | logarithmic reduction factor |
| --- | --- |
| CCCCCCCC(=O)OCC[N+](C)(CCOC(=O)CCCCCCC)CCOC(=O)CCCCCCC.COS(=O)(=O)[O-] [Example 2, methyl triethanolammonium tricaprylic acid ester methosulfate] | >4.73 |

same assay, conditions: CU 200 mg/l; contact time 15 mins.

| Compound | logarithmic reduction factor |
| --- | --- |
| CCCCCCCC(=O)OCC[N+](C)(CCOC(=O)CCCCCCC)CCOC(=O)CCCCCCC.COS(=O)(=O)[O-] [Example 2, methyl triethanolammonium tricaprylic acid ester methosulfate] | >4.71 |

same assay, conditions: CU 200 mg/l; contact time 30 mins.

| Compound | logarithmic reduction factor |
| --- | --- |
| CCCCCCCC(=O)OCC[N+](C)(CCOC(=O)CCCCCCC)CCOC(=O)CCCCCCC.COS(=O)(=O)[O-] [Example 2, methyl triethanolammonium tricaprylic acid ester methosulfate] | >4.82 |

same assay, conditions: CU 200 mg/l; contact time 60 mins.

| Compound | logarithmic reduction factor |
| --- | --- |
| CCCCCCCC(=O)OCC[N+](C)(CCOC(=O)CCCCCCC)CCOC(=O)CCCCCCC.COS(=O)(=O)[O-] [Example 2, methyl triethanolammonium tricaprylic acid ester methosulfate] | >4.68 |

same assay, conditions: CU 400 mg/l; contact time 5 mins.

| Compound | logarithmic reduction factor |
| --- | --- |
| CCCCCCCC(=O)OCC[N+](C)(CCOC(=O)CCCCCCC)CCOC(=O)CCCCCCC.COS(=O)(=O)[O-] [Example 2, methyl triethanolammonium tricaprylic acid ester methosulfate] | >4.73 |

same assay, conditions: CU 400 mg/l; contact time 15 mins.

| Compound | logarithmic reduction factor |
| --- | --- |
| CCCCCCCC(=O)OCC[N+](C)(CCOC(=O)CCCCCCC)CCOC(=O)CCCCCCC.COS(=O)(=O)[O-] [Example 2, methyl triethanolammonium tricaprylic acid ester methosulfate] | >4.71 |

same assay, conditions: CU 400 mg/l; contact time 30 mins.

| Compound | logarithmic reduction factor |
| --- | --- |
| CCCCCCCC(=O)OCC[N+](C)(CCOC(=O)CCCCCCC)CCOC(=O)CCCCCCC.COS(=O)(=O)[O-] [Example 2, methyl triethanolammonium tricaprylic acid ester methosulfate] | >4.82 |

same assay, conditions: CU 400 mg/l; contact time 60 mins.

| Compound | logarithmic reduction factor |
| --- | --- |
| CCCCCCCC(=O)OCC[N+](C)(CCOC(=O)CCCCCCC)CCOC(=O)CCCCCCC.COS(=O)(=O)[O-] [Example 2, methyl triethanolammonium tricaprylic acid ester methosulfate] | >4.68 |

same assay, conditions: CU 800 mg/l; contact time 5 mins.

| Compound | logarithmic reduction factor |
| --- | --- |
| CCCCCCCC(=O)OCC[N+](C)(CCOC(=O)CCCCCCC)CCOC(=O)CCCCCCC.COS(=O)(=O)[O-] [Example 2, methyl triethanolammonium tricaprylic acid ester methosulfate] | >4.73 |

same assay, conditions: CU 800 mg/l; contact time 15 mins.

| Compound | logarithmic reduction factor |
| --- | --- |
| CCCCCCCC(=O)OCC[N+](C)(CCOC(=O)CCCCCCC)CCOC(=O)CCCCCCC.COS(=O)(=O)[O-] [Example 2, methyl triethanolammonium tricaprylic acid ester methosulfate] | >4.71 |

same assay, conditions: CU 800 mg/l; contact time 30 mins.

| Compound | logarithmic reduction factor |
| --- | --- |
| CCCCCCCC(=O)OCC[N+](C)(CCOC(=O)CCCCCCC)CCOC(=O)CCCCCCC.COS(=O)(=O)[O-] [Example 2, methyl triethanolammonium tricaprylic acid ester methosulfate] | <4.82 |

same assay, conditions: CU 800 mg/l; contact time 60 mins.

| Compound | logarithmic reduction factor |
| --- | --- |
| CCCCCCCC(=O)OCC[N+](C)(CCOC(=O)CCCCCCC)CCOC(=O)CCCCCCC.COS(=O)(=O)[O-] [Example 2, methyl triethanolammonium tricaprylic acid ester methosulfate] | >4.68 |

test system: Pseudomonas aeruginosa ATCC 15442; assay: DGHM suspension test, microbicidal activity; format: cell-based; conditions: CU 50 mg/l; contact time 5 mins.
Procedure: as §1, §2, §3

| Compound | logarithmic reduction factor |
| --- | --- |
| CCCCCCCC(=O)OCC[N+](C)(CCOC(=O)CCCCCCC)CCOC(=O)CCCCCCC.COS(=O)(=O)[O-] [Example 2, methyl triethanolammonium tricaprylic acid ester methosulfate] | <1.38 |

same assay, conditions: CU 50 mg/l; contact time 15 mins.

| Compound | logarithmic reduction factor |
| --- | --- |
| CCCCCCCC(=O)OCC[N+](C)(CCOC(=O)CCCCCCC)CCOC(=O)CCCCCCC.COS(=O)(=O)[O-] [Example 2, methyl triethanolammonium tricaprylic acid ester methosulfate] | <1.70 |

same assay, conditions: CU 50 mg/l; contact time 30 mins.

| Compound | logarithmic reduction factor |
| --- | --- |
| CCCCCCCC(=O)OCC[N+](C)(CCOC(=O)CCCCCCC)CCOC(=O)CCCCCCC.COS(=O)(=O)[O-] [Example 2, methyl triethanolammonium tricaprylic acid ester methosulfate] | 3.31 |

same assay, conditions: CU 50 mg/l; contact time 60 mins.

| Compound | logarithmic reduction factor |
| --- | --- |
| CCCCCCCC(=O)OCC[N+](C)(CCOC(=O)CCCCCCC)CCOC(=O)CCCCCCC.COS(=O)(=O)[O-] [Example 2, methyl triethanolammonium tricaprylic acid ester methosulfate] | 3.98 |

same assay, conditions: CU 100 mg/l; contact time 5 mins.

| Compound | logarithmic reduction factor |
| --- | --- |
| CCCCCCCC(=O)OCC[N+](C)(CCOC(=O)CCCCCCC)CCOC(=O)CCCCCCC.COS(=O)(=O)[O-] [Example 2, methyl triethanolammonium tricaprylic acid ester methosulfate] | <1.38 |

same assay, conditions: CU 100 mg/l; contact time 15 mins.

| Compound | logarithmic reduction factor |
| --- | --- |
| CCCCCCCC(=O)OCC[N+](C)(CCOC(=O)CCCCCCC)CCOC(=O)CCCCCCC.COS(=O)(=O)[O-] [Example 2, methyl triethanolammonium tricaprylic acid ester methosulfate] | 3.25 |

same assay, conditions: CU 100 mg/l; contact time 30 mins.

| Compound | logarithmic reduction factor |
| --- | --- |
| CCCCCCCC(=O)OCC[N+](C)(CCOC(=O)CCCCCCC)CCOC(=O)CCCCCCC.COS(=O)(=O)[O-] [Example 2, methyl triethanolammonium tricaprylic acid ester methosulfate] | 3.75 |

same assay, conditions: CU 100 mg/l; contact time 60 mins.

| Compound | logarithmic reduction factor |
| --- | --- |
| CCCCCCCC(=O)OCC[N+](C)(CCOC(=O)CCCCCCC)CCOC(=O)CCCCCCC.COS(=O)(=O)[O-] [Example 2, methyl triethanolammonium tricaprylic acid ester methosulfate] | 4.49 |

same assay, conditions: CU 200 mg/l; contact time 5 mins.

| Compound | logarithmic reduction factor |
| --- | --- |
| CCCCCCCC(=O)OCC[N+](C)(CCOC(=O)CCCCCCC)CCOC(=O)CCCCCCC.COS(=O)(=O)[O-] [Example 2, methyl triethanolammonium tricaprylic acid ester methosulfate] | 1.38 |

same assay, conditions: CU 200 mg/l; contact time 15 mins.

| Compound | logarithmic reduction factor |
| --- | --- |
| CCCCCCCC(=O)OCC[N+](C)(CCOC(=O)CCCCCCC)CCOC(=O)CCCCCCC.COS(=O)(=O)[O-] [Example 2, methyl triethanolammonium tricaprylic acid ester methosulfate] | 3.95 |

— US6420330B1, “Use of quaternary carboxylic acid alkanolamine ester salts as microbicide agents” (Cognis Deutschland GmbH, priority 1997, dated 2002)
